Patent publication US5569599A, “Kerainase from fervidobacterium pennavorans DSM 7003” (Degussa Aktiengesellschaft, priority 1992, dated 1996)
Where a name gives a salt, the structure may show the parent alone. Numbered stars: 1 amine (or outer) side, 2 acyl side, 3 side chain; on linkers, the order of the positions; unused ones are H or OH. Peptide text beside a SMILES is read from it. * marks the point of attachment. pNA = O=[N+]([O-])c1ccc(N*)cc1; Suc = O=C(CCC(=O)[*:2])[*:1]; Cbz = O=C(OCc1ccccc1)*

Experiments:
Assay type in all cases: biochemical, Fervidobacterium pennavorans
[1] = system: proteases of cell-free raw extract of strain W; assay: Hydrolysis of chromogenic peptide substrates by the proteases (E405 value); details: 17 hours at 60° C., 0.2 mM substrate in phosphate buffer pH 7, 0.3 mg/ml raw enzyme extract, measuring stretch 1 cm
Protocol: The hydrolysis of chromogenic peptide substrates by proteases of the […] (E405 value)
In order to determine the substrate specificity of the proteases the cited chromogenic peptide substrates are incubated in a final concentration of 0.2 mM together with cell-free raw extract.
The incubation takes place below the temperature optimum and pH optimum of the proteases in order to avoid a thermal and pH-dependent, non-enzymatic hydrolysis of the peptide substrates.
900 μl 0.2 mM (w/v) substrate solution in 50 mM Na-P-buffer, pH 7.0
100 μl enzyme specimen incubation for 17 h at 60° C.
The released p-nitroaniline is subsequently measured immediately against a non-incubated blank reading at an extinction of 405 nm.

[2] = system: proteolytic activity of raw extract of strain W; assay: Influence of metal ions on the proteolytic activity of the raw extract; details: 1 h room temperature with raw extract, then 1 h at 80° C. with 0.25 % substrate pH 10; for ca. % activity 1 mM: metal ion 1 mM; for ca. % activity 5 mM: metal ion 5 mM
Protocol: Cells of a fermenter culture are macerated (approximately 1 g/20 ml Na-phosphate 50 mM pH 6.8 buffer) by ultrasound. (15 min, 50 %, stage (setting) 6-7, average sonication peak, Branson Sonifier). After microscopic control of successful maceration the raw extract is centrifuged for 20 min, 4° C., 35,000 xg. The supernatant obtained in this manner is used for the enzyme tests.
(§1) 0.45 ml 0.25 % (w/v) casein solution (Hammersten Quality) in an appropriate B & R buffer (Britton & Robinson, J. Chem. Soc. (1931), p. 1456. A solution containing 0.4 M H3 PO4, 0.4M CH3 COOH and 0.4M H3 BO3 in water is adjusted to the desired pH with 0.2 N NaOH) is pipetted on ice with 0.05 ml enzyme-containing specimen into E-Cups and incubated, depending on the activity, up to 60 min at the optimal temperature for the enzyme (80° C.) and the optimal pH (10). The batch is then compounded for stopping off and precipitating the proteins with 0.5 ml 10 % (w/v) trichloroacetic acid (TCA), incubated for 15-30 min at room temperature and then centrifuged for 10 min at 13000 rpms in an Eppendorf centrifuge (Heraeus Sepatech, Osterode). The extinction of the clear supernatant is measured at 280 nm in a quartz cuvette against a non-incubated blank reading.
(§2) In order to determine the enzyme activity, a tyrosine calibration curve is recorded in the range of 0-1 μM/batch. An enzyme activity (1 unit) is defined as that amount which released 1 μmole aromatic amino acids/min. The following computation results from the rise of the calibration curve: [formula] Production of the enzyme composition
The metal ions are dissolved in a buffer, 50 mM Na--P; pH 6.8. 50 μl of this solution are incubated with 50 μl raw extract for 1 h at room temperature, then 400 μl substrate (0.25 %, pH 10) are added and incubated for 1 h at 80° C. TCA precipitation and determination of activity are carried out as described above.

[3] = target: T1, proteases of the enzyme composition from microorganism strain W (Fervidobacterium pennivorans, UniProt Q93LQ6); assay: biochemical; details: for Residual act. (1 mM): inhibitor 1 mM; for remaining activity at 1000 µM / remaining activity at 5000 µM: 1 h; for remaining activity at 1000 µM: pH 10, read-out: Residual act. (1 mM); for remaining activity at 5000 µM: pH 10, read-out: Residual act. (5 mM)
T1 construct: casein substrate, pH 10, 80 C
T1 sequence (Q93LQ6 150-699): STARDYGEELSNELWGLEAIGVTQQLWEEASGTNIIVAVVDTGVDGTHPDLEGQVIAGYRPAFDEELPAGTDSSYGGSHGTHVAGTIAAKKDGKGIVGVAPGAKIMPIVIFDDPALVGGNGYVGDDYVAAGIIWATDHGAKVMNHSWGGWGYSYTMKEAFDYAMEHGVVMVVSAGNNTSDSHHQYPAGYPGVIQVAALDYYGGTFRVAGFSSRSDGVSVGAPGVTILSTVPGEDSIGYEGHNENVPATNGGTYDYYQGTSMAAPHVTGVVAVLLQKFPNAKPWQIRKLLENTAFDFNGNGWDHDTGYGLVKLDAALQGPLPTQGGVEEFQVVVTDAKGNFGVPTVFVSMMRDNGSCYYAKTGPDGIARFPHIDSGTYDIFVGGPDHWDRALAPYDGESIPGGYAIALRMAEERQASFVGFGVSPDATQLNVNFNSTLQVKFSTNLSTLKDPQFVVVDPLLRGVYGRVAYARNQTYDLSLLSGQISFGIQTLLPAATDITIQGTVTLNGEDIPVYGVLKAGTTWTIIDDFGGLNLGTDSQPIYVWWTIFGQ
Protocol: as §1, §2
Phenylmethylsulfonyl fluoride (PMSF) and diisopropylfluorophosphate (DFP) bond to the OH group of the serine in the active center of serine proteases and inhibit the latter irreversibly. Ethylene diamine tetraacetate Na2 salt (EDTA) is a metal chelating agent and inhibits metalloproteases.
470 μl 0.25 % (w/v) casein in […], pH 10--buffer (B & R)
5 μl inhibitor stock [strain]solution (see below)
When using 5 μl inhibitor stock solution the final concentration corresponds to 1 mM. When using 25 μl inhibitor solution (final concentration 5 mM), only 450 μl substrate solution are accordingly used. The batches are at first incubated without substrate at room temperature (1 h) and then with substrate for 1 h at the temperature which is optimum for the enzyme.
After the incubation the reaction is stopped with 500 μl of a 10 % (w/v) solution of trichloroacetic acid and the remaining activity determined as described above. The following inhibitor solutions are used:
PMSF 17.3 % (w/v) in ethanol
EDTA 3.56 % (w/v) in H2 O bidistillate
Iodoacetate 14.4 % (w.v) in H2 O bidistillate

[4] = 1 h preincubation at room temperature, then 1 h with casein, pH 10, optimum temperature, without inhibitor = 100%, approximate values

| Compound | ca. % activity 1 mM [2] | ca. % activity 5 mM [2] | further results |
| --- | --- | --- | --- |
| CC(=O)N[C@@H](Cc1ccc(O)cc1)C(=O)Nc1ccc([N+](=O)[O-])cc1 [acetyl-Tyr-pNA] | – | – | E405 value (in comparison to blank value) [1]: below 0.1 |
| O=S(=O)([O-])[O-].[O]=[V+2] [VOSO4] | 87% | 44% | – |
| N=C(N)NCCCC(NC(=O)c1ccccc1)C(=O)Nc1ccc([N+](=O)[O-])cc1 (racemic) [benzoyl-DL-Arg-pNA] | – | – | E405 value (in comparison to blank value) [1]: below 0.1 |
| [Cl][Ni][Cl] [NiCl2] | 72% | 44% | – |
| C[C@H](NC(=O)CCC(=O)O)C(=O)N[C@@H](C)C(=O)N1CCC[C@H]1C(=O)N[C@@H](Cc1ccccc1)C(=O)Nc1ccc([N+](=O)[O-])cc1 [N-succinyl-Ala-Ala-Pro-Phe-pNA] (Suc-AAPF-pNA) | – | – | E405 value (in comparison to blank value) [1]: > 0.5 |
| AgCl2 | 0% | 0% | – |
| [Cl][Fe]([Cl])[Cl] [FeCl3] | 93% | 0% | – |
| [Na+].[Na+].[O]=[W](=[O])([O-])[O-] [NaWO4] | 75% | 134% | – |
| O=C(O)CCC(=O)N[C@@H](Cc1ccccc1)C(=O)Nc1ccc([N+](=O)[O-])cc1 [N-succinyl-Phe-pNA] | – | – | E405 value (in comparison to blank value) [1]: > 0.5 |
| NCCc1ccc(S(=O)(=O)F)cc1 [Pefabloc SC] | – | – | Residual act. (1 mM) [3, 4]: 83% |
| [Na+].[Na+].[O]=[Mo](=[O])([O-])[O-] [NcMoO4] | 91% | 95% | – |
| NCCCC[C@H](NC(=O)c1ccccc1)C(=O)Nc1ccc([N+](=O)[O-])cc1 [benzoyl-Lys-pNA] | – | – | E405 value (in comparison to blank value) [1]: below 0.1 |
| [Cl-].[Cl-].[Zn+2] [ZnCl2] | 57% | 37% | – |
| O=C(NCC(=O)N1CCC[C@H]1C(=O)Nc1ccc([N+](=O)[O-])cc1)OCc1ccccc1 [Z-Gly-Pro-pNA] (Cbz-Gly-Pro-pNA) | – | – | E405 value (in comparison to blank value) [1]: below 0.1 |
| [Cl][Fe][Cl] [FeCl2] | 127% | 0% | – |
| O=C(O)CI [Iodoacetate] | – | – | remaining activity at 1000 µM [3]: 83%; remaining activity at 5000 µM [3]: 76% |
| O=[Se]([O-])[O-].[Na+].[Na+] [NaSe2 O3] | 96% | 136% | – |
| [Cl][Cu][Cl] [CuCl2] | 17% | 0% | – |
| O=S(=O)(F)Cc1ccccc1 [PMSF, Phenylmethylsulfonyl fluoride] | – | – | Residual act. (1 mM) [3, 4]: 14%; Residual act. (5 mM) ([3]; inhibitor 5 mM, 1 h preincubation at room temperature, then 1 h with casein, pH 10, optimum temperature, without inhibitor = 100%, approximate values): 10% |
| [Cl-].[Na+] [NaCl] | 86% | 116% | – |
| [Cl-].[Cl-].[Mg+2] [MgCl2] | 171% | 125% | – |
| [Ca+2].[Cl-].[Cl-] [CaCl2] | 85% | 117% | – |
| O=C(O)CN(CCN(CC(=O)O)CC(=O)O)CC(=O)O [EDTA, Ethylene diamine tetraacetate Na2 salt] | – | – | remaining activity at 1000 µM [3]: 93%; remaining activity at 5000 µM [3]: 85% |
| [Cl-].[Cl-].[Co+2] [CoCl2] | 143% | 187% | – |
| [Cl][Mn][Cl] [MnCl2] | 110% | 120% | – |
